Assay results: patent US6753348B2, “BTK inhibitors and methods for their identification and use” (Parker Hughes Institute, priority 1998, dated 2004)
pIC50: −log10 of the molar value.

Key:
[1] = system: ALL-1 cells; test: Ceramide-induced apoptosis, MC540/PI flow cytometry; assay type: cell-based, human; conditions: 200 μM plus 10 μM C2-ceramide
[2] = target: EGF-Receptor Kinase (EGFR) (Homo sapiens, UniProt P00533); test: Cell-free tyrosine kinase inhibition assay EGFR; assay type: biochemical
[3] = target: BTK-Fas association in NALM-6-UM1 cells (Homo sapiens, UniProt Q06187); test: BTK-Fas association, Western blot of BTK immune complexes; assay type: cell-based; conditions: 10 μM x 4 hours
Method: FIGS. 6A-6D: Apoptotic Responses of Human B-lineage Leukemia Cells to Fas Ligation in Relationship to BTK Expression and Function. Anti-BTK and anti-Actin dual-antibody Western blot analysis of whole cell lysates from BTK-positive NALM-6-UM1 (N6-U1) and BTK-deficient RAMOS-1 cells (FIG. 5A). Anti-Fas Western blot analysis of the same cell lysates. [B] Cells were harvested 24 hours after exposure to anti-Fas antibody at 0.1 μg/ml or 1.0 μg/ml concentrations and DNA from Triton-X-100 lysates was analyzed for fragmentation, as described by Uckun, F. M., et al. (1996) Science 273, 1096-1100; and Uckun, F. M., et al. (1995) Science 267, 886-91. […] [C.1] and [C.2] Anti-BTK and anti-Fas Western blot analysis of whole cell lysates from N6-U1 cells treated with the BTK inhibitor LMA-13 (10 μM×4 hours). [C.3] Anti-Fas and Anti-BTK Western blot analysis of anti-BTK antibody immunoprecipitated BTK immune complexes from untreated (=−Inhibitor) and LMA-13-treated (10 μM×4 hours) (=+Inhibitor) N6-U1 cells. [D]. N6-U1 cells were harvested 24 hours after exposure to anti-Fas antibody at 0.1 μg/ml or 1.0 μg/ml concentrations and DNA from Triton-X-100 lysates was analyzed for fragmentation, as described by Uckun, F. M., et al. (1996) Science 273, 1096-1100; and Uckun, F. M., et al. (1995) Science 267, 886-91. […]

Chain of EGF-Receptor Kinase (EGFR) (P00533 25-1210, species assumed): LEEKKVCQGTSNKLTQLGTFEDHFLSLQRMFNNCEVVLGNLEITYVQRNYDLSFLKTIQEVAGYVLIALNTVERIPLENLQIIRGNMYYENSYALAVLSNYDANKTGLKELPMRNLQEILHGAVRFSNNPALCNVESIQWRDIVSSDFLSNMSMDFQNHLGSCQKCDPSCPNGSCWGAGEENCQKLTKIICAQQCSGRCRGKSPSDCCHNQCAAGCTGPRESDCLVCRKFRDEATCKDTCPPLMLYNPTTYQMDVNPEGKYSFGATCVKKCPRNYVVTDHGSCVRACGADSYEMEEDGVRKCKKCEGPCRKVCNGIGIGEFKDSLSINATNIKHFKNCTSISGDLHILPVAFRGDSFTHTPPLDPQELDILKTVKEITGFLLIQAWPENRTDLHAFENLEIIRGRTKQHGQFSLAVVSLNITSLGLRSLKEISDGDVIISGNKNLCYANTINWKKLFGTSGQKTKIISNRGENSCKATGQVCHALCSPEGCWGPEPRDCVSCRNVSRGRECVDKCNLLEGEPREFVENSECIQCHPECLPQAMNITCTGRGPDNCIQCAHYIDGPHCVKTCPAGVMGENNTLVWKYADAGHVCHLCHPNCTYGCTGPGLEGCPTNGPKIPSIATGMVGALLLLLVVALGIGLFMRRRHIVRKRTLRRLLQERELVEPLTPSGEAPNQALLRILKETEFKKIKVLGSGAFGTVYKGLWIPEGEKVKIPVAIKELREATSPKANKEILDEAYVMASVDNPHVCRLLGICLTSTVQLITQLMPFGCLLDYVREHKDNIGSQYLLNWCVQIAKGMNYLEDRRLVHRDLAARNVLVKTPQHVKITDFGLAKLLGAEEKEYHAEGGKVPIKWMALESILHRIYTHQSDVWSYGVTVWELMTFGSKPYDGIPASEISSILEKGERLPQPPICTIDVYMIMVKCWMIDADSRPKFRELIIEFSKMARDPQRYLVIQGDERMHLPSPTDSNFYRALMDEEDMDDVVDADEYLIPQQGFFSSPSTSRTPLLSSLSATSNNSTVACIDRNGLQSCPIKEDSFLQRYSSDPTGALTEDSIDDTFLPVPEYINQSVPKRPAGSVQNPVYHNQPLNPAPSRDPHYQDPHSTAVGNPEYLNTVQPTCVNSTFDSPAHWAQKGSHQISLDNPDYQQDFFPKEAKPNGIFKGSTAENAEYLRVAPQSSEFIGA
Chain of BTK-Fas association in NALM-6-UM1 cells (Q06187 2-659): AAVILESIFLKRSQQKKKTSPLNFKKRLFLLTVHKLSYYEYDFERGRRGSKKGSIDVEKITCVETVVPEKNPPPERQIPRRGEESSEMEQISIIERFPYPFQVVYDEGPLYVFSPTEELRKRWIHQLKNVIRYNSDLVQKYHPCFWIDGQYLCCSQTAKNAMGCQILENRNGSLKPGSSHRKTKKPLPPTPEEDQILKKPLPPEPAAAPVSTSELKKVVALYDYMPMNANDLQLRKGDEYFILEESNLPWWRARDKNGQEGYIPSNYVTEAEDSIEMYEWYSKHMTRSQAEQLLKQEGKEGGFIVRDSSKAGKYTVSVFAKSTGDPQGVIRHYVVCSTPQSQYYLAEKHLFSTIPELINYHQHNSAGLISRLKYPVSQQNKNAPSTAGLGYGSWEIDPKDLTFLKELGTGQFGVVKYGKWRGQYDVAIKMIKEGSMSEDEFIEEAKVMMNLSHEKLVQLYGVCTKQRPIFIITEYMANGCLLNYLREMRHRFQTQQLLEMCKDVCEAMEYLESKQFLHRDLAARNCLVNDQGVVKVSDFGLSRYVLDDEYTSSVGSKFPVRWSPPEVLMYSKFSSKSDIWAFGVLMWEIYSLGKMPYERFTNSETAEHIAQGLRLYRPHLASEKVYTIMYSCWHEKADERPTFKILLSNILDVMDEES

## C/C(O)=C(\C#N)C(=O)Nc1cc(Br)ccc1Br [LFM-A13, α-Cyano-β-hydroxy-β-methyl-N-(2,5-dibromophenyl)-propenamide]
[1]
  chemosensitivity to ceramide-induced apoptosis: significantly enhanced the chemosensitivity
[2]; EGFR
  pIC50: < 3.56
[2]; concentrations as high as 100 μg/ml (~278 μM)
  effect on enzymatic activity of EGFR: did not affect the enzymatic activity
[3]
  BTK-Fas association: abrogates the BTK-Fas association
